In US20120015331A1, “SCAFFOLD” (priority 2009, published 2012):
Where a name gives a salt, the structure may show the parent alone.

Tests used:
L. Casei = test: Bacterial killing assay (PDT, Example 5); assay type: cell-based; conditions: 22 μM erythrosine in BHI broth
Experimental: L. Casei is a known constituent of gut microflora. A growth curve for L. Casei both in the presence and without erythrosine was prepared using broth turbidity measured by spectrophotometry using a Shimadzu UV-1601 UV-Visible spectrophotometer. L. Casei were grown in Brain Heart Infusion (BHI) liquid broth at 37° C. to stationary phase overnight. A fresh volume of BHI broth containing erythrosine released from the scaffold at a concentration known to be effective for PDT was inoculated using the stationary phase culture and incubated at 37° C. in a shaking incubator. Bacteria were also incubated in BHI with non scaffold derived erythrosine, BHI containing an equal concentration of scaffold breakdown products from a non erythrosine containing scaffold or blank scaffold and BHI alone with no additives. Since bacteria are most sensitive to PDT during log phase this was chosen as the time most appropriate for irradiation therefore irradiation took place 2 hours 30 minutes after inoculation. […] Following irradiation bacterial viability was assessed by spreading broth samples on Columbia blood agar plates and following 48 hour incubation counting the number of visible colonies. The number of colony forming units (cfu)/ml of broth were then calculated. […]

L casei = L casei cultures in BHI with additives, foil-wrapped or exposed to light (Example 16); assay type: cell-based
Experimental: Pieces of blank PGA scaffold and PGA scaffold containing 5 w/w % erythrosine B were incubated overnight in BHI and the scaffold was removed before adding L Casei culture, the erythrosine B concentration was measured and adjusted to 22 μM. For each of the ‘media’ shown in Table 1, two tubes of culture, one tube wrapped in foil, were exposed to light for 30 minutes. After exposure to light, serial dilutions were made of the cultures in BHI which were then grown on Columbian blood agar plates for 48 hours. The number of colonies on the plates was then counted and those having between 30 and 300 colonies were used to calculate the cfu/ml for the cultures. […] PDT (erythrosine plus light) causes 6 logs of cell kill, whereas in the presence of glycolic acid released from the scaffold (or added to a similar concentration out of a bottle), the amount of cell killing doubles or more.

In the case of `O=C1OC2(c3ccccc31)c1cc(I)c(O)c(I)c1Oc1c2cc(I)c(O)c1I` [Erythrosin B, disodium salt of 2′,4,′5,′7′-tetraiodofluorescein], the log10 kill (L. Casei; 10 minutes irradiation) is reported as 6.1 log10, the log10 kill (L. Casei; 30 minute irradiation) is reported as 6.4 log10 and the “cell kill by PDT (erythrosine plus light)” value (L casei; 22 μM, light for 30 minutes) is reported as 6 logs. For the same compound, the “colony forming units, culture tubes wrapped in foil and exposed to light (F)” value (L casei; BHI, 30 minutes, foil-wrapped, erythrosin 22 μM where present) was 2.75 × 10^8 cfu/ml and the “colony forming units, culture tubes exposed to light (L)” value (L casei; BHI, exposed to light for 30 minutes, erythrosin 22 μM where present) was 2.1 × 10^2 cfu/ml.
